This is an account of results in US11053218B2, “3-(1-oxoisoindolin-2-yl)piperidine-2,6-dione derivatives and uses thereof” (Novartis AG, priority 2017, dated 2021).

Type in all cases: cell-based
In one assay the target is IKZF1 (Homo sapiens, UniProt Q13422+Q96SW2). The assay can be described thus: Prolabel quantification of IKZF1 protein levels in 293GT cells. The note with it: Prolabel assay, read-out: IKZF1 EC50.
The target in the next assay is IKZF2 (Homo sapiens, UniProt Q96SW2+Q9UKS7). The assay can be described thus: Prolabel quantification of IKZF2 protein levels in 293GT cells.
Sequence of IKZF2 (Q9UKS7 whole entry): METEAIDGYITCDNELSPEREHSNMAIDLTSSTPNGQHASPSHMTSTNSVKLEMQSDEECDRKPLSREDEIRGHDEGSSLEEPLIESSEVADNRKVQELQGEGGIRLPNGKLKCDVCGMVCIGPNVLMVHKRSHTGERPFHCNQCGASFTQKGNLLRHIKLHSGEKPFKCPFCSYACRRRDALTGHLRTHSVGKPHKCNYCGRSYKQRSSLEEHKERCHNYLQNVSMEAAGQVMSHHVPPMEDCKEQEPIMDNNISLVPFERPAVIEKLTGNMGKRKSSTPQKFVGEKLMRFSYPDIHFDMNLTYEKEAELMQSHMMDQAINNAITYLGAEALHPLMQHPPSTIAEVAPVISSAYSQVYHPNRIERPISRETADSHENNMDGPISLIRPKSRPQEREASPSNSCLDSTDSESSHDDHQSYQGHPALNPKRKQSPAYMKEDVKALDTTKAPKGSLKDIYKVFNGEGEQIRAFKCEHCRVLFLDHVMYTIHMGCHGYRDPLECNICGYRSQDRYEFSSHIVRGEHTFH
Sequence of IKZF2 (Q96SW2 whole entry): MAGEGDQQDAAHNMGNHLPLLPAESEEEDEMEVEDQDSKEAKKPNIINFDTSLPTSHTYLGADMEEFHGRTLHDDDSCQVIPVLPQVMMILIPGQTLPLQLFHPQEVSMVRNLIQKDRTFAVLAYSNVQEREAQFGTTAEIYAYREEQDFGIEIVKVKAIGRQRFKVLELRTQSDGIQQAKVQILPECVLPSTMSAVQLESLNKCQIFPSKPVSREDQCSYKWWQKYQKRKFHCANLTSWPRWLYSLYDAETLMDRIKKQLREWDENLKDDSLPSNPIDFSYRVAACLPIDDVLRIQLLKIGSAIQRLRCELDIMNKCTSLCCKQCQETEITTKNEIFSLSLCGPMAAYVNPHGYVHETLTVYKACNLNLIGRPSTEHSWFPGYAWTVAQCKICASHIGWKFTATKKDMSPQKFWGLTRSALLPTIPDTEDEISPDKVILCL
Sequence of IKZF2 (Q16531 whole entry partner): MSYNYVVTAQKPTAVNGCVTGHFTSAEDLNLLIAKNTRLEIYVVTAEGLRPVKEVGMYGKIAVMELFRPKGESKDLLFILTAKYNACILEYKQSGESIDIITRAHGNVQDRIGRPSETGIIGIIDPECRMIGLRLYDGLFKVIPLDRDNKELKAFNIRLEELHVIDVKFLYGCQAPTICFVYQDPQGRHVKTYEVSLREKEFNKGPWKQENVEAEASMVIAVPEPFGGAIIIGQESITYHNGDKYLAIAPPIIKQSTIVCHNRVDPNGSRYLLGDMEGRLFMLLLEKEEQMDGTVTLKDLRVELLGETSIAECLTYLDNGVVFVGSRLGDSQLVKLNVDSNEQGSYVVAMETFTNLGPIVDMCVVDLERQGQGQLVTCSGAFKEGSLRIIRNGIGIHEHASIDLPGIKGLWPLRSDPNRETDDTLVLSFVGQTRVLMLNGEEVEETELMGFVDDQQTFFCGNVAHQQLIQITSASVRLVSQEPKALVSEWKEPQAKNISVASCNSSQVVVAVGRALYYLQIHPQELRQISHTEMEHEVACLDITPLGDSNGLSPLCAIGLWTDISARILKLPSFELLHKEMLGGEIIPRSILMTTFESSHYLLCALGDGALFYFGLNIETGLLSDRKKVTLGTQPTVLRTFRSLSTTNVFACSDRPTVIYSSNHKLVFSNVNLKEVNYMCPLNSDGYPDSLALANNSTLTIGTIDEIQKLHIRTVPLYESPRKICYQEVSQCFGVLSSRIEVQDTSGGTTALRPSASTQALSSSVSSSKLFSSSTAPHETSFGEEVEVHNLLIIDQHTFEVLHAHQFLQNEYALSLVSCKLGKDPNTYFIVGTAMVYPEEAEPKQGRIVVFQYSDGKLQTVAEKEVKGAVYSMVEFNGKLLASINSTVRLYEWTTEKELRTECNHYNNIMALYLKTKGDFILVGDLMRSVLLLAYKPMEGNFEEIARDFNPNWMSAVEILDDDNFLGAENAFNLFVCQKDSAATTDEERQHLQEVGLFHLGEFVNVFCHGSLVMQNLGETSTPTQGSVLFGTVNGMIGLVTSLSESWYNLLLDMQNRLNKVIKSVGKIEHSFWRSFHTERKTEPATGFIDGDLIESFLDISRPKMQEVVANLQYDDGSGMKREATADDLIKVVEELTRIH
Another assay addresses GSPT1 (Homo sapiens, UniProt P15170+Q96SW2). The assay can be described thus: Prolabel quantification of GSPT1 protein levels in 293GT cells. The note with it: Prolabel assay, read-out: GSPT1 EC50. How it is done:
The Prolabel system from DiscoverX was used to develop high-throughput and quantitative assays to measure changes in IKZF1, IKZF2 and GSPT1 protein levels in response to compounds. The prolabel tag was derived from the alpha fragment of beta galactosidase and has the following protein sequence: mssnslavvlqrrdwenpgvtqlnrlaahppfaswrnseeartdrpsqqlrslnge. The complementary fragment of beta-galactosidase (from DiscoverX), is added to the prolabel tag to form an active beta galactosidase enzyme whose activity can be precisely measured. In this way, the levels of a fusion protein with the prolabel tag can be quantified in cell lysates.
Lentiviral vectors, based on the Invitrogen pLenti6.2/V5 DEST backbone, were constructed that placed the prolabel tag upstream of IKZF1, IKZF2 or GSPT1 and expressed the fusion protein from a CMV promoter.
To ensure moderate and consistent expression of the prolabel fusion proteins across all cells in the population, stable cell lines were constructed from cells expressing a single copy of the construct. Lentivirus packaged with the constructs was made using the Virapower kit from Invitrogen.
The levels of prolabel tagged fusion proteins in compound treated cell lines were measured as follows:
Day 1, Cells were diluted to 1.0×10^6 cells/ml in normal growth medium. 17.5 μL of cells were plated in each well of a solid white 384 well plate. Plates were incubated overnight in a 37° C. tissue culture incubator.
Day 2, Serial dilutions of compounds were made in 384 well plates from 10 mM stocks. 15 μL of DMSO was added to each well of a 384 well plate. In the first column 15 μL of stock compound was added. The solution was mixed and 15 μL was transferred to the next column. This was repeated until 20 two-fold dilutions were prepared. 2.5 μL of diluted compounds were transferred into 60 μL of cell culture medium in another 384 well plate, and mixed well. 2.5 μL of this mixture was added to the plated cells. The final DMSO concentration was 0.5% and the highest concentration of compound was 50 μM. Plates were incubated overnight (e.g., about 14 h, 18 h, or 24 h) in a 37° C. tissue culture incubator.
Day 3, Plates were removed from the incubator and allowed to equilibrate at rt for 30 minutes. Prolabel substrate (DiscoverX PathHunter Prolabel Detection Kit, User manual: 93-0180) was added as described by the manufacturers protocols. Plates were incubated at rt for three hours and luminescence was read using an Envision reader (Perkin Elmer) Data was analyzed and visualized using the Spotfire software package.

Where [1] appears, read: 24 h, 10 μM, 24 h, 293GT cells; read-out: IKZF2 % protein reduction at 10 μM, 24 h.
The mark [2] stands for this setting: Prolabel assay, 293GT cells; read-out: IKZF2 EC50.

Read-outs that look alike come from different tables or passages of the source. Bounds are passed on as bounds.

Sequence of IKZF1 (Q13422 whole entry): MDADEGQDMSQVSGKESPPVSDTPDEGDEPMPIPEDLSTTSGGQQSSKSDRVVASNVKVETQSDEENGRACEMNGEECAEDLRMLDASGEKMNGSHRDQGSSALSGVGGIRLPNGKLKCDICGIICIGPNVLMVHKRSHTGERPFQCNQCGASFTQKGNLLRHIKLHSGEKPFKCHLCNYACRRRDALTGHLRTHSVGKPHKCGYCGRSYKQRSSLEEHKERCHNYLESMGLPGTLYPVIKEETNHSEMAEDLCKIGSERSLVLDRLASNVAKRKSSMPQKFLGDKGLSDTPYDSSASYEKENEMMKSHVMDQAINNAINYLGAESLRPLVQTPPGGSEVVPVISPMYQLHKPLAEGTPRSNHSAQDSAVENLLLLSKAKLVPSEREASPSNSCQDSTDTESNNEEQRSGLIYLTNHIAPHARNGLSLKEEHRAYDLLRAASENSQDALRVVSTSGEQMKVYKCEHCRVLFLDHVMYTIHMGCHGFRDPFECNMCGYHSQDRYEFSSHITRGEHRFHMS
Sequence of IKZF1 (Q96SW2 whole entry): as the sequence (Q96SW2 whole entry) above
Sequence of IKZF1 (Q16531 whole entry partner): as the sequence (Q16531 whole entry partner) above
Sequence of GSPT1 (P15170 whole entry, the tested form may be a part): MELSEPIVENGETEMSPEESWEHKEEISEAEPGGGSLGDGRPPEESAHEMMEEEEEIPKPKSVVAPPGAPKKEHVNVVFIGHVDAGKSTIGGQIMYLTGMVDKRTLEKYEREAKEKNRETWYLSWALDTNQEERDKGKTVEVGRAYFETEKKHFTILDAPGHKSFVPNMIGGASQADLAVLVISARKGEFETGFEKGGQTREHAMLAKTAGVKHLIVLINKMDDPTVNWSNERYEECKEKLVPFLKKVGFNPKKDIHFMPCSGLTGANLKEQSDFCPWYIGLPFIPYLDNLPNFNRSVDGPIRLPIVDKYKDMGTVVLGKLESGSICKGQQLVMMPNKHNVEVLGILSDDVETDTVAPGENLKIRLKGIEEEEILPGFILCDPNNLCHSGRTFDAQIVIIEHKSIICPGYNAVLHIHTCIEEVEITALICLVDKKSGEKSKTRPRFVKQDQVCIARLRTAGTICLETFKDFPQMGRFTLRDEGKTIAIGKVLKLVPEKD
Sequence of GSPT1 (Q96SW2 whole entry, the tested form may be a part): as the sequence (Q96SW2 whole entry) above
Sequence of GSPT1 (Q16531 whole entry partner, the tested form may be a part): as the sequence (Q16531 whole entry partner) above

For the compound `O=C1CCC(N2Cc3cc(C4CCN(Cc5cc6n(n5)CCCC6)CC4)ccc3C2=O)C(=O)N1` (centres unmarked) [Compound I-135, 3-(1-oxo-5-(1-((4,5,6,7-tetrahydropyrazolo[1,5-a]pyridin-2-yl)methyl)piperidin-4-yl)isoindolin-2-yl)piperidine-2,6-dione], the DC50 was over 30000 nM on IKZF1, 57 nM on IKZF2 (setting [2]) and over 30000 nM on GSPT1. At IKZF2 (setting [1]), the inhibition at 10 µM is 60%.
Take `Cc1nc2sccn2c1CN1CCC(c2ccc3c(c2)CN(C2CCC(=O)NC2=O)C3=O)CC1` (centres unmarked) [Compound I-125, 3-(5-(1-((6-methylimidazo[2,1-b]thiazol-5-yl)methyl)piperidin-4-yl)-1-oxoisoindolin-2-yl)piperidine-2,6-dione]: the DC50 on IKZF1 was over 30000 nM; at IKZF2 (setting [2]), 240 nM; on GSPT1, over 30000 nM. Further, at IKZF2 (setting [1]), the inhibition at 10 µM amounted to 60%.
On to `O=C1CCC(N2Cc3cc(C4CCN(Cc5csc(-c6ccccc6)n5)CC4)ccc3C2=O)C(=O)N1` (centres unmarked) [Compound I-211, 3-(1-oxo-5-(1-((2-phenylthiazol-4-yl)methyl)piperidin-4-yl)isoindolin-2-yl)piperidine-2,6-dione], for which the values for the DC50 on IKZF1, at IKZF2 (setting [2]) and on GSPT1 were 39 nM, 24 nM and over 30000 nM, respectively. Also, the inhibition at 10 µM on IKZF2 (setting [1]) came to 80%.
In the same order, the values of `Cc1ccccc1CN1CCC(c2ccc3c(c2)CN(C2CCC(=O)NC2=O)C3=O)CC1` (centres unmarked) [Compound I-157, 3-(5-(1-(2-methylbenzyl)piperidin-4-yl)-1-oxoisoindolin-2-yl)piperidine-2,6-dione] are over 50000 nM, 56 nM, over 50000 nM and 55%.
For `O=C1CCC(N2Cc3cc(C4CCN(CC5CCCCC5)CC4)ccc3C2=O)C(=O)N1` (centres unmarked) [Compound I-11, 3-(5-(1-(cyclohexylmethyl)piperidin-4-yl)-1-oxoisoindolin-2-yl)piperidine-2,6-dione], in that order: over 50000 nM, 13 nM, over 50000 nM and 65%.
For the compound `O=C1CCC(N2Cc3cc(C4CCN(Cc5cccc6[nH]ncc56)CC4)ccc3C2=O)C(=O)N1` (centres unmarked) [Compound I-43, 3-(5-(1-((1H-indazol-4-yl)methyl)piperidin-4-yl)-1-oxoisoindolin-2-yl)piperidine-2,6-dione], the DC50 was over 30000 nM at IKZF1, 12 nM at IKZF2 (setting [2]) and over 30000 nM on GSPT1. Moreover, at IKZF2 (setting [1]), the inhibition at 10 µM was found to be 80%. Besides, the “IKZF2 protein levels as compared to the control (DMSO)” value on IKZF2 (Prolabel assay in HEK293GT cells, bar graph) was “decreased”.
With `O=C1CCC(N2Cc3cc(C4CCN(Cc5nc6ccsc6c(=O)[nH]5)CC4)ccc3C2=O)C(=O)N1` (centres unmarked) [Compound I-213, 3-(1-oxo-5-(1-((4-oxo-3,4-dihydrothieno[3,2-d]pyrimidin-2-yl)methyl)piperidin-4-yl)isoindolin-2-yl)piperidine-2,6-dione], the DC50 on IKZF1 is over 30000 nM; at IKZF2 (setting [2]), 45 nM; at GSPT1, over 30000 nM. The inhibition at 10 µM at IKZF2 (setting [1]) is 70%.
With `O=C1CCC(N2Cc3cc(C4CCN(Cc5ccnc6ccccc56)CC4)ccc3C2=O)C(=O)N1` (centres unmarked) [Compound I-214, 3-(1-oxo-5-(1-(quinolin-4-ylmethyl)piperidin-4-yl)isoindolin-2-yl)piperidine-2,6-dione], the DC50 on IKZF1 is over 50000 nM; at IKZF2 (setting [2]), 19 nM; on GSPT1, over 30000 nM. The inhibition at 10 µM at IKZF2 (setting [1]) was 70%.
For `O=C1CCC(N2Cc3cc(C4CCN(Cc5ccc6nccnc6c5)CC4)ccc3C2=O)C(=O)N1` (centres unmarked) [Compound I-239, 3-(1-oxo-5-(1-(quinoxalin-6-ylmethyl)piperidin-4-yl)isoindolin-2-yl)piperidine-2,6-dione], in that order: over 30000 nM, 7 nM, over 30000 nM and 70%.
In the same order, the values of `O=C1CCC(N2Cc3cc(C4CCN(Cc5ccc(F)c(F)c5)CC4)ccc3C2=O)C(=O)N1` (centres unmarked) [Compound I-64, 3-(5-(1-(3,4-difluorobenzyl)piperidin-4-yl)-1-oxoisoindolin-2-yl)piperidine-2,6-dione] are over 30000 nM, 25 nM, over 30000 nM and 75%.
As for `O=C1CCC(N2Cc3cc(C4CCN(Cc5cn(C6CCC6)nn5)CC4)ccc3C2=O)C(=O)N1` (centres unmarked) [Compound I-134, 3-(5-(1-((1-cyclobutyl-1H-1,2,3-triazol-4-yl)methyl)piperidin-4-yl)-1-oxoisoindolin-2-yl)piperidine-2,6-dione], the values for the DC50 on IKZF1, at IKZF2 (setting [2]) and on GSPT1 were over 30000 nM, 34 nM and over 30000 nM, respectively. Further, the inhibition at 10 µM on IKZF2 (setting [1]) was 80%.
On to `CC(C)(C)c1nc(CN2CCC(c3ccc4c(c3)CN(C3CCC(=O)NC3=O)C4=O)CC2)cs1` (centres unmarked) [Compound I-143, 3-(5-(1-((2-(tert-butyl)thiazol-4-yl)methyl)piperidin-4-yl)-1-oxoisoindolin-2-yl)piperidine-2,6-dione], for which the DC50 at IKZF1 was over 30000 nM; on IKZF2 (setting [2]) it was 26 nM; on GSPT1 it was over 30000 nM. In addition, the inhibition at 10 µM at IKZF2 (setting [1]) was 60%.
`Cc1ccc(CN2CCC(c3ccc4c(c3)CN(C3CCC(=O)NC3=O)C4=O)CC2)cc1` (centres unmarked) [Compound I-158, 3-(5-(1-(4-methylbenzyl)piperidin-4-yl)-1-oxoisoindolin-2-yl)piperidine-2,6-dione]: the DC50 is over 50000 nM at IKZF1, 16 nM on IKZF2 (setting [2]) and over 50000 nM on GSPT1. Moreover, on IKZF2 (setting [1]), the inhibition at 10 µM was 55%.
For the compound `N#Cc1cccc(CN2CCC(c3ccc4c(c3)CN(C3CCC(=O)NC3=O)C4=O)CC2)c1` (centres unmarked) [Compound I-36, 3-((4-(2-(2,6-dioxopiperidin-3-yl)-1-oxoisoindolin-5-yl)piperidin-1-yl)methyl)benzonitrile], the DC50 is over 30000 nM at IKZF1, 17 nM at IKZF2 (setting [2]) and over 30000 nM at GSPT1. Also, the inhibition at 10 µM at IKZF2 (setting [1]) came out at 75%.
As for `C[C@H]1CC(c2ccc3c(c2)CN(C2CCC(=O)NC2=O)C3=O)CCN1Cc1ccccc1` (stereo partly drawn) [Compound I-160, 3-(5-((2S)-1-benzyl-2-methylpiperidin-4-yl)-1-oxoisoindolin-2-yl)piperidine-2,6-dione], the figures for the DC50 at IKZF1, at IKZF2 (setting [2]) and on GSPT1 were over 50000 nM, 18 nM and over 50000 nM, respectively. Also, on IKZF2 (setting [1]), the inhibition at 10 µM was found to be 50%.
With `O=C1CCC(N2Cc3cc(C4CCN(Cc5ccc(F)cc5)CC4)ccc3C2=O)C(=O)N1` (centres unmarked) [Compound I-112, 3-(5-(1-(4-fluorobenzyl)piperidin-4-yl)-1-oxoisoindolin-2-yl)piperidine-2,6-dione], the DC50 at IKZF1 is over 50000 nM; at IKZF2 (setting [2]), 7 nM; at GSPT1 it was over 50000 nM. Moreover, the inhibition at 10 µM at IKZF2 (setting [1]) came to 63%.
As to `CCC(C)(C)c1ccc(CN2CCC(c3ccc4c(c3)CN(C3CCC(=O)NC3=O)C4=O)CC2)cc1` (centres unmarked) [Compound I-89, 3-(1-oxo-5-(1-(4-(tert-pentyl)benzyl)piperidin-4-yl)isoindolin-2-yl)piperidine-2,6-dione], the DC50 at IKZF1 was over 30000 nM; at IKZF2 (setting [2]), 33 nM; on GSPT1 it was over 30000 nM. In addition, on IKZF2 (setting [1]), the inhibition at 10 µM was found to be 70%.
In the case of `O=C1CCC(N2Cc3cc(C4CCN(Cc5ccc6c(c5)OCCCO6)CC4)ccc3C2=O)C(=O)N1` (centres unmarked) [Compound I-88, 3-(5-(1-((3,4-dihydro-2H-benzo[b][1,4]dioxepin-7-yl)methyl)piperidin-4-yl)-1-oxoisoindolin-2-yl)piperidine-2,6-dione], the DC50 on IKZF1 was over 30000 nM; at IKZF2 (setting [2]), 5 nM; on GSPT1, over 30000 nM. At IKZF2 (setting [1]), the inhibition at 10 µM was determined as 70%.
Consider `N#Cc1ccc(CN2CCC(c3ccc4c(c3)CN(C3CCC(=O)NC3=O)C4=O)CC2)cc1` (centres unmarked) [Compound I-31, 3-(5-(1-(4-nitrilebenzyl)piperidin-4-yl)-1-oxoisoindolin-2-yl)piperidine-2,6-dione], for which the DC50 on IKZF1 is over 50000 nM; at IKZF2 (setting [2]), 4 nM; on GSPT1 it was over 50000 nM. On IKZF2 (10 μM, 24 h, 293GT cells; read-out: IKZF2 % protein reduction at 10 μM, 24 h), the inhibition at 10 µM turned out to be 60%.
